Measurements reported in patent publication US8962630B2, “Pyrrolopyrimidine compounds and their uses” (Novartis AG, priority 2008, dated 2015).
pIC50: −log10 of the molar value.

Key:
Assay type in all cases: biochemical
[1] = molecular target: CDK4/cyclin D1 (Homo sapiens (Human), UniProt P11802); assay: CDK4/Cyclin D1 enzymatic activity assay (Lance TR-FRET); conditions: Table 2; 3 μM ATP; read-out: CDK4
Method in brief: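 Recombinant His6-CDK4/GST-cyclin D1 (Sf21-expressed), 0.3 nM, phosphorylated 175 nM pRb152 with 3 μM ATP in HEPES pH 7.5, Mg/Mn buffer, 2% DMSO, 60 min at room temperature. Compound range 0.005-10 μM. EDTA-quenched; pRb S780 phosphorylation read by TR-FRET (Eu anti-rabbit/APC-streptavidin) for IC50.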

[2] = molecular target: CDK1/cyclin B (Homo sapiens (Human), UniProt P06493); assay: CDK1/Cyclin B enzymatic activity assay (IMAP-FP); conditions: Table 2; 20 μM ATP; read-out: CDK1
Source text: A 384-well microtiter IMAP-FPT™ (Molecular Devices Trade Mark Technology) endpoint assay was used for CDK1/cyclin B kinase activity measurements. The same assay was used for IC50 determination of small molecule inhibitors.

[3] = molecular target: CDK2/cyclin A (Homo sapiens (Human), UniProt P24941); assay: CDK2/Cyclin A enzymatic activity assay (IMAP-FP); conditions: Table 2; read-out: CDK2

Sequence of CDK1/cyclin B (P06493 whole entry, species assumed): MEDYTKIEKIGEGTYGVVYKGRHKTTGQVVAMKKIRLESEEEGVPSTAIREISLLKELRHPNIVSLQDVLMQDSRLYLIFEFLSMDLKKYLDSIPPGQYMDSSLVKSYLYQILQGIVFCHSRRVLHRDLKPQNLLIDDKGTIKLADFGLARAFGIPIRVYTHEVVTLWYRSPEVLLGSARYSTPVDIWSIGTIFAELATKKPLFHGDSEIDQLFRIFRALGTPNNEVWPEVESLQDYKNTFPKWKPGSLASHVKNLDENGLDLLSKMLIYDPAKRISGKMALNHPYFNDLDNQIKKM
Sequence of CDK1/cyclin B (P14635 whole entry partner, species assumed): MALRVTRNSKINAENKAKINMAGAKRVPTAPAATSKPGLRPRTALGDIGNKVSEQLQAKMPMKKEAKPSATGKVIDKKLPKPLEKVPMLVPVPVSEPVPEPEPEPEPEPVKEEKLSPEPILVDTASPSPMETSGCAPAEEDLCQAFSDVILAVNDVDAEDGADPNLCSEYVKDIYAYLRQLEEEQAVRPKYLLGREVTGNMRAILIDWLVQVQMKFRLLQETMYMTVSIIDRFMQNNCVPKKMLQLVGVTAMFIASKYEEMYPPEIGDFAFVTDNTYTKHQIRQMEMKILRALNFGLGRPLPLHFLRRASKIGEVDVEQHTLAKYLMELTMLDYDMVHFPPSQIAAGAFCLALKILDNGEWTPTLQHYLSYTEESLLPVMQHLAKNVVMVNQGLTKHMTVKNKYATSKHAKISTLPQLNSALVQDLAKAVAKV
Sequence of CDK4/cyclin D1 (P11802 whole entry): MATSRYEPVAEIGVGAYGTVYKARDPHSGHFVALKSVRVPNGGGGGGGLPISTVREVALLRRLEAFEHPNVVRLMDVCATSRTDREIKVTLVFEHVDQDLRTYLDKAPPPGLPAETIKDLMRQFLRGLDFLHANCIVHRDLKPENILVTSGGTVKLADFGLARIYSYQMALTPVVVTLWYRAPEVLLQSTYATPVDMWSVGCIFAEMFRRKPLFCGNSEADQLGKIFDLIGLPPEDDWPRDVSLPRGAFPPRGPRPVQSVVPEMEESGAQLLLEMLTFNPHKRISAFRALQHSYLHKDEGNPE
Sequence of CDK4/cyclin D1 (P24385 whole entry partner): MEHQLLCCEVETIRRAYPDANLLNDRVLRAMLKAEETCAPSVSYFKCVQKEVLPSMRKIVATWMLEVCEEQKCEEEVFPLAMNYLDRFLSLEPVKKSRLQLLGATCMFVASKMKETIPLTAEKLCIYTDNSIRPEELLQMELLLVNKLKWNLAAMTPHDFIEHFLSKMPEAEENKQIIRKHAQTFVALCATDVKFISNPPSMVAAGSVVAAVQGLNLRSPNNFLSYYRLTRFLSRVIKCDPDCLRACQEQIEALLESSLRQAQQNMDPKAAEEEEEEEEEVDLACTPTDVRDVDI

Row | pIC50 [1] | pIC50 [2] | pIC50 [3] | SMILES
1 | 7.00 to 8.00 | < 4.82 | < 4.82 | CN(C)C(=O)c1cc2cnc(Nc3ccc(N4CCN(CC5CCCCC5)CC4)cn3)nc2n1C1CCCC1 [Example 69, 2-[5-(4-Cyclohexylmethyl-piperazin-1-yl)-pyridin-2-ylamino]-7-cyclopentyl-7H-pyrrolo[2,3-d]pyrimidine-6-carboxylic acid dimethylamide]
2 | 7.00 to 8.00 | < 4.82 | < 4.82 | CC(C)N1CCN(c2ccc(Nc3ncc4cc(C(=O)N(C)C)n(C5CCCC5)c4n3)nn2)CC1 [Example 70, 7-Cyclopentyl-2-[6-(4-isopropyl-piperazin-1-yl)-pyridazin-3-ylamino]-7H-pyrrolo[2,3-d]pyrimidine-6-carboxylic acid dimethylamide]
3 | 7.00 to 8.00 | < 4.82 | < 4.82 | CN(C)C(=O)c1cc2cnc(Nc3ccc(N4CCN(CC(C)(C)O)CC4)cn3)nc2n1C1CCCC1 [Example 71, 7-Cyclopentyl-2-{5-[4-(2-hydroxy-2-methyl-propyl)-piperazin-1-yl]-pyridin-2-ylamino}-7H-pyrrolo[2,3-d]pyrimidine-6-carboxylic acid dimethylamide]
4 | 7.00 to 8.00 | < 4.82 | < 4.82 | CN(C)C(=O)c1cc2cnc(Nc3ccc(N4CCNC(C)(C)C4)cn3)nc2n1C1CCCC1 [Example 72, 7-Cyclopentyl-2-[5-(3,3-dimethyl-piperazin-1-yl)-pyridin-2-ylamino]-7H-pyrrolo[2,3-d]pyrimidine-6-carboxylic acid dimethylamide]
5 | 7.00 to 8.00 | < 4.82 | < 4.82 | C[C@@H]1CN(Cc2ccc(Nc3ncc4cc(C(=O)N(C)C)n(C5CCCC5)c4n3)nc2)C[C@H](C)N1 [Example 75, 7-Cyclopentyl-2-[5-((3S,5R)-3,5-dimethyl-piperazin-1-ylmethyl)-pyridin-2-ylamino]-7H-pyrrolo[2,3-d]pyrimidine-6-carboxylic acid dimethylamide]
6 | 7.00 to 8.00 | < 4.82 | < 4.82 | CN(C)C(=O)c1cc2cnc(Nc3ccc(CN4CCC(O)CC4)cn3)nc2n1C1CCCC1 [Example 76, 7-Cyclopentyl-2-[5-(4-hydroxy-piperidin-1-ylmethyl)-pyridin-2-ylamino]-7H-pyrrolo[2,3-d]pyrimidine-6-carboxylic acid dimethylamide]
7 | 7.00 to 8.00 | < 4.82 | < 4.82 | COCCN1CCN(Cc2ccc(Nc3ncc4cc(C(=O)N(C)C)n(C5CCCC5)c4n3)nc2)CC1 [Example 77, 7-Cyclopentyl-2-{5-[4-(2-methoxy-ethyl)-piperazin-1-ylmethyl]-pyridin-2-ylamino}-7H-pyrrolo[2,3-d]pyrimidine-6-carboxylic acid dimethylamide]
8 | 8.00 to 9.00 | < 4.82 | < 4.82 | CCN1CCN(c2ccc(Nc3ncc4cc(C(=O)N(C)C)n(C5CCCC5)c4n3)nc2)CC1 [Example 78, 7-Cyclopentyl-2-[5-(4-ethyl-piperazin-1-yl)-pyridin-2-ylamino]-7H-pyrrolo[2,3d]pyrimidine-6-carboxylic acid dimethylamide]
9 | 7.00 to 8.00 | < 4.82 | < 4.82 | CN(C)C(=O)c1cc2cnc(Nc3ccc(N4CCN(C5CCCC5)CC4)cn3)nc2n1C1CCCC1 [Example 79, 7-Cyclopentyl-2-[5-(4-cyclopentyl-piperazin-1-yl)-pyridin-2-ylamino]-7H-pyrrolo[2,3-d]pyrimidine-6-carboxylic acid dimethylamide]
10 | 7.00 to 8.00 | < 4.82 | < 4.82 | CC(C)N1CCC(c2ccc(Nc3ncc4cc(C(=O)N(C)C)n(C5CCCC5)c4n3)nc2)CC1 [Example 80, 7-Cyclopentyl-2-(1′-isopropyl-1′,2′,3′,4′,5′,6′-hexahydro-[3,4′]bipyridinyl-6-ylamino)-7H-pyrrolo[2,3-d]pyrimidine-6-carboxylic acid dimethylamide]
11 | 7.00 to 8.00 | < 4.82 | < 4.82 | C[C@@H]1CN(c2ccc(Nc3ncc4cc(C(=O)N(C)C)n(C5CCCC5)c4n3)nc2)CCN1CCO [Example 81, 7-Cyclopentyl-2-{5-[(R)-4-(2-hydroxy-ethyl)-3-methyl-piperazin-1-yl]-pyridin-2-ylamino}-7H-pyrrolo[2,3-d]pyrimidine-6-carboxylic acid dimethylamide]
12 | 7.00 to 8.00 | < 4.82 | < 4.82 | C[C@H]1CN(c2ccc(Nc3ncc4cc(C(=O)N(C)C)n(C5CCCC5)c4n3)nc2)CCN1CCO [Example 82, 7-Cyclopentyl-2-{5-[(S)-4-(2-hydroxy-ethyl)-3-methyl-piperazin-1-yl]-pyridin-2-ylamino}-7H-pyrrolo[2,3-d]pyrimidine-6-carboxylic acid dimethylamide]
13 | 6.00 to 7.00 | < 4.82 | < 4.82 | CN(C)C(=O)c1cc2cnc(Nc3ccc(N(C)CCO)cn3)nc2n1C1CCCC1 [Example 83, 7-Cyclopentyl-2-{5-[(2-hydroxy-ethyl)-methyl-amino]-pyridin-2-ylamino}-7H-pyrrolo[2,3-d]pyrimidine-6-carboxylic acid dimethylamide]
14 | 7.00 to 8.00 | < 4.82 | < 4.82 | CN(C)C(=O)c1cc2cnc(Nc3ccc(N4CCN(CC#N)CC4)cn3)nc2n1C1CCCC1 [Example 84, 2-[5-(4-Cyanomethyl-piperazin-1-yl)-pyridin-2-ylamino]-7-cyclopentyl-7H-pyrrolo[2,3-d]pyrimidine-6-carboxylic acid dimethylamide]
15 | 7.00 to 8.00 | < 4.82 | < 4.82 | CN(C)C(=O)c1cc2cnc(Nc3ccc(CN4CCN(CCO)CC4)cn3)nc2n1C1CCCC1 [Example 85, 7-Cyclopentyl-2-{5-[4-(2-hydroxy-ethyl)-piperazin-1-ylmethyl]-pyridin-2-ylamino}-7H-pyrrolo[2,3-d]pyrimidine-6-carboxylic acid dimethylamide]
16 | 7.00 to 8.00 | < 4.82 | < 4.82 | CN(C)C(=O)c1cc2cnc(Nc3ccc(N4CCN(CCF)CC4)cn3)nc2n1C1CCCC1 [Example 86, 7-Cyclopentyl-2-{5-[4-(2-fluoro-ethyl)-piperazin-1-yl]-pyridin-2-ylamino}-7H-pyrrolo[2,3-d]pyrimidine-6-carboxylic acid dimethylamide]
17 | 7.00 to 8.00 | 4.89 | < 4.82 | CN(C)C(=O)c1cc2cnc(Nc3ccc(C(=O)N4CCC(O)CC4)cn3)nc2n1C1CCCC1 [Example 87, 7-Cyclopentyl-2-[5-(4-hydroxy-piperidine-1-carbonyl)-pyridin-2-ylamino]-7H-pyrrolo[2,3-d]pyrimidine-6-carboxylic acid dimethylamide]
18 | 8.00 to 9.00 | < 4.82 | < 4.82 | CN(C)CC(=O)N1CCN(c2ccc(Nc3ncc4cc(C(=O)N(C)C)n(C5CCCC5)c4n3)nc2)CC1 [Example 88, 7-Cyclopentyl-2-{5-[4-(2-dimethylamino-acetyl)-piperazin-1-yl]-pyridin-2-ylamino}-7H-pyrrolo[2,3-d]pyrimidine-6-carboxylic acid dimethylamide]
19 | 7.00 to 8.00 | < 4.82 | < 4.82 | CN(C)C(=O)c1cc2cnc(Nc3ccc(N4CCN(C(=O)CC5CCCCC5)CC4)cn3)nc2n1C1CCCC1 [Example 90, 2-{5-[4-(2-Cyclohexyl-acetyl)-piperazin-1-yl]-7H-pyridin-2-ylamino}-7-cyclopentyl-7H-pyrrolo[2,3-d]pyrimidine-6-carboxylic acid dimethylamide]
20 | 7.00 to 8.00 | < 4.82 | < 4.82 | CN(C)C(=O)c1cc2cnc(Nc3ccc(N4CCN(C(=O)CCC5CCCC5)CC4)cn3)nc2n1C1CCCC1 [Example 91, 7-Cyclopentyl-2-{5-[4-(3-cyclopentyl-propionyl)-piperazin-1-yl]-pyridin-2-ylamino}-7H-pyrrolo[2,3-d]pyrimidine-6-carboxylic acid dimethylamide]
21 | 8.00 to 9.00 | < 4.82 | < 4.82 | CC(C)CN1CCN(c2ccc(Nc3ncc4cc(C(=O)N(C)C)n(C5CCCC5)c4n3)nc2)CC1 [Example 92, 7-Cyclopentyl-2-[5-(4-isobutyl-piperazin-1-yl)-pyridin-2-ylamino]-7H-pyrrolo[2,3-d]pyrimidine-6-carboxylic acid dimethylamide]
22 | 7.00 to 8.00 | < 4.82 | < 4.82 | CN(C)C(=O)c1cc2cnc(Nc3ccc(N4CCN(C(=O)N5CCCCC5)CC4)cn3)nc2n1C1CCCC1 [Example 94, 7-Cyclopentyl-2-{5-[4-(piperidine-1-carbonyl)-piperazin-1-yl]-pyridin-2-ylamino}-7H-pyrrolo[2,3-d]pyrimidine-6-carboxylic acid dimethylamide]
23 | 7.00 to 8.00 | < 4.82 | < 4.82 | CC(C)OCCN1CCN(c2ccc(Nc3ncc4cc(C(=O)N(C)C)n(C5CCCC5)c4n3)nc2)CC1 [Example 95, 7-Cyclopentyl-2-{5-[4-(2-isopropoxy-ethyl)-piperazin-1-yl]-pyridin-2-ylamino}-7H-pyrrolo[2,3-d]pyrimidine-6-carboxylic acid dimethylamide]
24 | 7.00 to 8.00 | < 4.82 | < 4.82 | CN(C)C(=O)c1cc2cnc(Nc3ccc(C(=O)N4CCN(CCO)CC4)cn3)nc2n1C1CCCC1 [Example 96, 7-Cyclopentyl-2-{5-[4-(2-hydroxy-ethyl)-piperazine-1-carbonyl]-pyridin-2-ylamino}-7H-pyrrolo[2,3-d]pyrimidine-6-carboxylic acid dimethylamide]
